From patent US20250275975A1, “Methods of Treating Neuropathies” (Athira Pharma, Inc., priority 2023, published 2025)

Experiments:
STZ DNP rats [1] = test: Mechanical allodynia rescue assay (Von Frey paw withdrawal threshold), Example B1; type: in vivo, Sprague Dawley rats; parameters: key to Efficacy: rescue of mechanical allodynia behavior as measured by paw withdrawal threshold: NS indicates treatment did not significantly affect paw withdrawal threshold vs disease control.; + indicates p < 0.05 vs disease control.; ++ indicates p < 0.01 vs disease control.; +++ indicates p < 0.001 vs disease control; conditions: for Efficacy: rescue of mechanical allodynia behavior as measured by paw withdrawal threshold: study day 28 after 14 days of treatment, p vs disease control; for rescue of the mechanical allodynia behavior as measured by paw withdrawal threshold: STZ DNP rats
Excerpt: Hyperglycemic rats consistently develop neuropathic pain-associated behaviors including mechanical allodynia. Allodynia refers to a type of neuropathic pain characterized by increased sensitivity to stimuli that are not normally painful. Mechanical allodynia is quantified in rats by determination of the force required to induce a withdrawal of the paw and is negatively associated with allodynia such that, the lower the force required to induce paw withdrawal, the greater the pain behavior.
(§1) A series of studies were performed to determine the ability of HGF/MET positive modulator compounds to reduce the mechanical allodynia pain behaviors in hyperglycemic rats. A single dose of STZ (55 mg/kg via intravenous (IV)) was administered to induce a Type I diabetic hyperglycemia in male Sprague Dawley rats. Hyperglycemia was confirmed 4 days after STZ administration, with blood glucose levels above 200 mg/dL considered successful model induction. 14 days after disease induction, test compound treatment was initiated and continued as daily compound administration over the remaining course of the study. Route and dose for each compound were determined by pharmacokinetic and distribution modelling. Control groups included animals with no diabetic induction (Sham control), animals with diabetes but treated only with formulation vehicle (DNP (diabetic peripheral neuropathy) control), and disease animals treated with pregabalin (30 mg/kg via PO), which is known to reduce neuropathic pain behaviors.
(§2) Changes to neuropathic pain behaviors were assessed after 14 days of compound treatment on study day 28. Mechanical allodynia was tested by placing each animal on an elevated wire grid and stimulating the plantar surface of the right rear paw with a series of filaments corresponding to increasing orders of force, reaching a maximum force of 60 grams (Aesthesio manual Von Frey filaments). The force of the filament that causes paw withdrawal was considered the paw withdrawal threshold in grams. Pain sensitivity in response to thermal hyperalgesia was determined by using hot plate method and represented as paw withdrawal latency (PWL). Rats were placed on the hot plate (52.5° C.), and the time taken to show the nocifensive behavior (either licking or jumping) of any of their paws was recorded. Statistical comparison of treatment groups to DNP control groups was performed by one-way ANOVA followed by Dunnett's multiple comparisons test.

STZ DNP rats [2] = test: Thermal hyperalgesia rescue assay (hot plate paw withdrawal latency), Example B1; type: in vivo, Sprague Dawley rats; parameters: key to Efficacy: rescue of thermal hyperalgesia behavior as measured by paw withdrawal latency: NS indicates treatment did not significantly affect paw withdrawal latency vs disease control.; + indicates p < 0.05 vs disease control.; ++ indicates p < 0.01 vs disease control.; +++ indicates p < 0.001 vs disease control; conditions: for Efficacy: rescue of thermal hyperalgesia behavior as measured by paw withdrawal latency: study day 28 after 14 days of treatment, hot plate 52.5° C., p vs disease control; for rescue of thermal allodynia behavior as measured by paw withdrawal latency: STZ DNP rats
Experimental: as §1, §2

[3] = tested on: neuron-Schwann cell co-cultures; test: Sensory neurite extension and myelination in healthy primary dorsal root ganglia cultures; type: cell-based, rat; parameters: key to Significant promotion of Neurite Network Extension of Sensory Neurons / Significant promotion of Myelination of Sensory neurons by Schwann Cells: “NS” indicates the treatment did not have a significant effect; “+” indicates the treatment had a significant effect; conditions: for Significant promotion of Myelination of Sensory neurons by Schwann Cells / Significant promotion of Neurite Network Extension of Sensory Neurons: Healthy cultures, vs vehicle
Experimental: (§3) To assess the effects of test compound treatment on these structures central to neuropathic pathology, peripheral sensory neurons were modeled using dissociated primary cultures of neurons and Schwann cells collected from fetal rats. Fetal rats were collected from pregnant females after 15 days of gestation, and the dorsal root ganglion was dissociated via trypsin digestion and mechanical disruption. The resulting cells were plated and allowed to grow for 7 days. On day 7 in culture, ascorbic acid at a concentration of 50 μM was added to the culture to promote myelination of sensory neurons by Schwann cells.
To model the effects of Compound 5a in the normal peripheral nervous system, neuron-Schwann cell co-cultures were treated with Compound 5a in combination with low doses of recombinant hepatocyte growth factor (HGF). On day 8 in culture, experimental treatments were added to culture media. These treatments included HGF with or without Compound 5a. Some cultures were treated with the steroid hormone B-estradiol to serve as a positive control. Treatments were applied every other day, and on day 21 in culture the cultures were fixed with ethanol and processed for immunodetection of both microtubule-associate protein 2 (MAP2) to reveal neurons and their neurites as well as myelin-associated glycoprotein (MAG) to reveal Schwann cells and the extent of their myelination of cultured neurites. Cells were counterstained with Hoechst DNA dye to identify individual cells.
(§4) 30 fluorescent images were captured for each treatment group and images were quantified by automated image analysis. Neurite network extension was quantified as the total length of MAP2-positive neurites per cell measured in μm. Myelination by Schwann cells was quantified by the area of overlap between MAP2-positive neurites and MAG-positive myelin wrapping measured in μm^2. Statistical analysis was performed as a one-way ANOVA with Fisher's LSD post-test against either vehicle- or Cisplatin-treated groups respectively.

[4] = tested on: neuron-Schwann cell co-cultures injured with cisplatin; test: Sensory neurite extension and myelination in cisplatin-injured primary dorsal root ganglia cultures; type: cell-based, rat; parameters: key to Significant promotion of Neurite Network Extension of Sensory Neurons / Significant promotion of Myelination of Sensory neurons by Schwann Cells: “NS” indicates the treatment did not have a significant effect; “+” indicates the treatment had a significant effect; conditions: for Significant promotion of Myelination of Sensory neurons by Schwann Cells / Significant promotion of Neurite Network Extension of Sensory Neurons: +Cisplatin injury (10 μg/ml, 24 hours), vs Cisplatin-treated group
Experimental: as §3
To model the effects of neuropathic injury in sensory neurons and associated Schwann cells, cultures were injured with the chemotherapy drug cisplatin. These cultures were prepared identically to those described above. In this system, Compound 5a, HGF, and β-estradiol treatments began on culture day 19. Also on culture day 19, cisplatin (10 μg/ml) was added to the cultures for 24 hours. On culture day 20, cisplatin was removed from the media while test compound treatments were replaced for 24 hours. On day 21 in culture, cells were fixed and processed for immunodetection as described above.
as §4

[5] = healthy cultures, positive control β-estradiol
[6] = injured cultures, positive control β-estradiol
[7] = healthy cultures, HGF alone at either 0.05 or 5 ng/ml
[8] = injured cultures, HGF alone at either 0.05 or 5 ng/ml

## CCC(C)CN1CC2N(Cc3ccc(OC(F)F)cc3)CCC(=O)N2[C@@H](C)C1=O (stereo partly shown) [Compound 6a]
STZ DNP rats [1]; 0.156 mg/kg PO daily
  Efficacy: rescue of mechanical allodynia behavior as measured by paw withdrawal threshold: NS
STZ DNP rats [1]; 0.625 mg/kg PO daily
  Efficacy: rescue of mechanical allodynia behavior as measured by paw withdrawal threshold: + (+ indicates p < 0.05 vs disease control.)
STZ DNP rats [1]; 2.5 mg/kg PO daily
  Efficacy: rescue of mechanical allodynia behavior as measured by paw withdrawal threshold: +++ (+++ indicates p < 0.001 vs disease control.)
STZ DNP rats [1]; 10 mg/kg PO daily
  Efficacy: rescue of mechanical allodynia behavior as measured by paw withdrawal threshold: +++ (+++ indicates p < 0.001 vs disease control.)
STZ DNP rats [1]
  rescue of the mechanical allodynia behavior as measured by paw withdrawal threshold: significant rescue
STZ DNP rats [2]; 0.156 mg/kg PO daily
  Efficacy: rescue of thermal hyperalgesia behavior as measured by paw withdrawal latency: NS
STZ DNP rats [2]; 0.625 mg/kg PO daily
  Efficacy: rescue of thermal hyperalgesia behavior as measured by paw withdrawal latency: NS
STZ DNP rats [2]; 2.5 mg/kg PO daily
  Efficacy: rescue of thermal hyperalgesia behavior as measured by paw withdrawal latency: ++ (++ indicates p < 0.01 vs disease control.)
STZ DNP rats [2]; 10 mg/kg PO daily
  Efficacy: rescue of thermal hyperalgesia behavior as measured by paw withdrawal latency: +++ (+++ indicates p < 0.001 vs disease control.)
STZ DNP rats [2]
  rescue of thermal allodynia behavior as measured by paw withdrawal latency: significant rescue

## C[C@]12CC[C@@H]3c4ccc(O)cc4CC[C@H]3[C@@H]1CC[C@@H]2O [β-estradiol, reference compound]
[3]; β-estradiol 150 nM
  Significant promotion of Myelination of Sensory neurons by Schwann Cells: +
  Significant promotion of Neurite Network Extension of Sensory Neurons: +
[3]; [5]
  myelination of sensory neurons by Schwann cells: significantly promoting
  neurite network extension: significantly promoting
[4]; β-estradiol 150 nM
  Significant promotion of Myelination of Sensory neurons by Schwann Cells: +
  Significant promotion of Neurite Network Extension of Sensory Neurons: +
[4]; [6]
  myelination of sensory neurons by Schwann cells: significantly promoting
  neurite network extension: significantly promoting

## HGF: recombinant hepatocyte growth factor (HGF), added at low doses with or without Compound 5a
[3]; HGF 0.05 ng/ml alone
  Significant promotion of Myelination of Sensory neurons by Schwann Cells: NS
  Significant promotion of Neurite Network Extension of Sensory Neurons: NS
[3]; HGF 5 ng/ml alone
  Significant promotion of Myelination of Sensory neurons by Schwann Cells: NS
  Significant promotion of Neurite Network Extension of Sensory Neurons: NS
[3]; [7]
  myelination: did not significantly promote
  neurite network extension: did not significantly promote
[4]; HGF 0.05 ng/ml alone
  Significant promotion of Myelination of Sensory neurons by Schwann Cells: NS
  Significant promotion of Neurite Network Extension of Sensory Neurons: NS
[4]; HGF 5 ng/ml alone
  Significant promotion of Myelination of Sensory neurons by Schwann Cells: NS
  Significant promotion of Neurite Network Extension of Sensory Neurons: NS
[4]; [8]
  myelination: did not significantly promote
  neurite network extension: did not significantly promote

## CCC(C)CN1CC2N(C(=O)c3ccc(OC(F)F)cc3)CCC(=O)N2[C@@H](C)C1=O (stereo partly shown) [Compound 2a]
STZ DNP rats [1]; 0.00625 mg/kg PO daily
  Efficacy: rescue of mechanical allodynia behavior as measured by paw withdrawal threshold: + (+ indicates p < 0.05 vs disease control.)
STZ DNP rats [1]; 0.025 mg/kg PO daily
  Efficacy: rescue of mechanical allodynia behavior as measured by paw withdrawal threshold: ++ (++ indicates p < 0.01 vs disease control.)
STZ DNP rats [1]; 0.1 mg/kg PO daily
  Efficacy: rescue of mechanical allodynia behavior as measured by paw withdrawal threshold: +++ (+++ indicates p < 0.001 vs disease control.)
STZ DNP rats [1]; 1 mg/kg PO daily
  Efficacy: rescue of mechanical allodynia behavior as measured by paw withdrawal threshold: +++ (+++ indicates p < 0.001 vs disease control.)
STZ DNP rats [1]
  rescue of the mechanical allodynia behavior as measured by paw withdrawal threshold: significant rescue
STZ DNP rats [2]; 0.00625 mg/kg PO daily
  Efficacy: rescue of thermal hyperalgesia behavior as measured by paw withdrawal latency: + (+ indicates p < 0.05 vs disease control.)
STZ DNP rats [2]; 0.025 mg/kg PO daily
  Efficacy: rescue of thermal hyperalgesia behavior as measured by paw withdrawal latency: NS
STZ DNP rats [2]; 0.1 mg/kg PO daily
  Efficacy: rescue of thermal hyperalgesia behavior as measured by paw withdrawal latency: ++ (++ indicates p < 0.01 vs disease control.)
STZ DNP rats [2]; 1 mg/kg PO daily
  Efficacy: rescue of thermal hyperalgesia behavior as measured by paw withdrawal latency: NS
STZ DNP rats [2]
  rescue of thermal allodynia behavior as measured by paw withdrawal latency: significant rescue
